Laboratory results from patent US5484778A, “Phthalocyanine photosensitizers for photodynamic therapy and methods for their use” (priority 1993, dated 1996).
Entries after “also recorded” stand apart in the source; their conditions may differ.

Legend:
V79 cells [1] = tested on: V79 cells
Method: V79 cells Chinese hamster lung fibroblasts were cultured using the cell culture methods described above. […] When the filters were dry, the phthalocyanines were extracted into ethanol and the absorption determined at the peak wavelength, usually 668 nm.

V79 cells [2] = assay: Clonogenicity, killing of V79 cells using photodynamic therapy (Table 3); type: cell-based, Chinese hamster; details: for photosensitizing activity, killing V79 cells (in words): discussion of Table 3
Method: Using the cell culture methods described above, V79 cells Chinese hamster lung fibroblasts were treated with either 0.5 or 1.0 μM of the phthalocyanines listed in Table 3. About 18 hours thereafter, the cells were irradiated with increasing doses of 675 nm broad band red light from a 500 W tungsten-halogen lamp fitted with a 600 nm high pass filter, to determine the light dosage that would kill 90% of the phthalocyanine treated cells. Where 90% of the cells were not killed, the maximum percent of cells killed were determined, (expressed as % survival) and the related light dosage recorded.

L5178Y cells = assay: Induction of apoptosis (DNA fragmentation) in L5178Y-R cells (Table 6); type: cell-based, mouse; details: for apoptosis (in words): various concentrations and fluences
Method: (§1) Mouse lymphoma L5178y-R (hereinafter also referred to as "LY-R") cells were grown in suspension culture as described in Ramakrishnan N., Oleinick, N. L. Clay, M. E., Horng, M. F., Antunez, A. R., and Evans H. H., DNA lesions and DNA degradation in mouse lymphoma L5178Y cells after photodynamic treatment sensitized by chloroaluminum phthalocyanine. Photochem. Photobiol. 50, 373-378, 1989 and Agarwal, M. L., Clay, M. E., Harvey, E. J., Evans, H. H., Antunez, A. R., and Oleinick, N. L. Photodynamic therapy induces rapid cell death by apoptosis in L5178Y mouse lymphoma cells. Cancer Res., 51, 5993-5996, 1991.
(§2) The cells were used while in exponential growth. Stock solutions of either 0.5 or 1 mM of PcIV, PcXII, PcX, PcXVIII were prepared in dimethylformamide unless otherwise indicated and added to the 10 mL medium at a rate of 1 μL per mL. After allowing 18 hours for uptake of the phthalocyanine into the cells, the flasks containing the cultures were placed on a glass exposure tray above a 500-W tungsten-halogen lamp. The exposure tray was fitted with a 600-nm high-pass filter. Flasks were exposed to various fluences of red light (up to 30 kJ/m^2) at a fluence rate of approximately 74 W/m^2). After irradiation, the cells were collected by centrifugation.
(§3) For measurement of clonogenic cell survival, aliquots were plated in medium containing soft agar as described in Ramakrishnan N., Oleinick, N. L. Clay, M. E., Horng, M. F., Antunez, A. R., and Evans H. H., DNA lesions and DNA degradation in mouse lymphoma L5178Y cells after photodynamic treatment sensitized by chloroaluminum phthalocyanine. Photochem. Photobiol. 50, 373-378, 1989. The aliquots were plated in sufficient numbers to produce 50-200 colonies. The dishes were kept in an incubator at 37° C. in an atmosphere of 5% CO2 and 95% air for 10-14 days to allow viable cells to form colonies. Colonies were counted by eye. Controls treated with the phthalocyanine alone had plating efficiencies of ~90%. The plating efficiencies of the treated cells are normalized to the plating efficiencies of control cells in each experiment. For measurement of the induction of apoptosis, DNA was isolated from the treated and control cells 2 hours after photodynamic therapy, subjected to electrophoresis on 1.5% agarose, stained with ethidium bromide, and visualized by UV transillumination, as described in Agarwal et. al. The results are shown in Tables 4, 5 and 6 and in FIG. 3.
Cells were treated with various concentrations of the compounds listed in the table and various light fluences. DNA gels were prepared and examined for the characteristic "ladder" pattern of DNA fragments. For each Pc, the minimum total PDT dose tested (calculated as the product of the minimum phthalocyanine concentration and the minimum fluence) which produced visible DNA fragments is recorded. […] PcXVIII was also added at 0.5 and 1.0 μM.

RIF-1 tumors = assay: PDT of RIF-1 implanted tumors (Table 7); type: in vivo, C3H/HeN mice; details: for Doubling Time of Initial Tumor Volume after PDT: 1 mg/kg in corn oil, 675 nm, 135 J/cm^2; for effect on tumor volume / growth (in words): 1 mg/kg
Method: The relative effectiveness at reducing tumor volume of selected phthalocyanine compounds at a given dosage was compared in vivo. RIF-1, i.e., radiation-induced fibrosarcoma, tumors were implanted into the backs of C3H/HeN mice. One tumor was implanted per mouse. Each of the phthalocyanine compounds listed in Table 7 was sonicated and vortexed in corn oil to produce a suspension. When the tumors reached […] in diameter and 2-3 mm in thickness, each mouse received 1 mg/kg in 0.1 ml of the corn oil, of the phthalocyanine suspension. For comparison, select mice received a conventional photosensitizer; either 5 mg/kg of chloroaluminum phthalocyanine tetrasulfonate, herein also referred to as "AlPcTS" in phosphate buffered saline or 5 mg/kg of Photofrin®-II in 5% dextrose. Twenty-four hours after the photosensitizers were administered, the tumors were irradiated with visible radiation delivered by an argon-pumped dye laser. The mice that received a phthalocyanine photosensitizer received light having a wavelength of 675 nm and the mice that received the Photofrin® II photosensitizer received light having a wavelength of 630 nm. Each tumor received 135 J/cm^2 of radiation. Tumor size was measured every day using calipers. The initial tumor volume was 50±10 mm^3. Tumor volume was calculated according to the hemiellipsoid model by the formula: [formula] Where l is length Where W is width

L5178Y-R (LY-R) cells = assay: Clonogenic survival of PDT-treated L5178Y-R cells (Tables 4 and 5, FIG. 3); type: cell-based, mouse; details: 0.5 μM; for activity relative to PcXII: from Table 5; for LD 90: fluence reducing survival to 10%; for LD50: fluence reducing survival to 50%
Method: as §1, §2, §3
In Table 4 each phthalocyanine was present at 0.5 μM, and the normalized plating efficiencies are presented as mean and standard deviation at each fluence tested. […] This relative activity of these four phthalocyanines is the same as obtained from screening in V79 cells.
PcXII when present in the culture medium at 0.5 μM requires less light, that is the lowest fluence, to kill either 50% […] of the cells. PcIV is about 80% as active as PcXII, PcX is 44% as active as PcXII and PcXVIII is 22% as active as PcXII.

[3] = 0.5 μM, 18 h, light dose killing 90% of cells

| Compound | Uptake (from Table 2) (V79 cells [1]) [n Moles/10^6 cells/μM] | Uptake into V79 cells, composite value (V79 cells [1]) [n Moles/10^6 cells/μM] | LD 90 (V79 cells [2]; [3]) [kJ/m^2] | Minimum Demonstrated Condition to induce apoptosis: C × F (L5178Y cells; 0.5 μM) [μm × kJ/m^2] | Minimum Demonstrated Condition to induce apoptosis: Fluence (L5178Y cells; 0.5 μM) [kJ/m^2] | Doubling Time of Initial Tumor Volume after PDT (RIF-1 tumors) [days] | Minimum Demonstrated Condition to induce apoptosis: C × F (L5178Y cells; 1.0 μM) [μm × kJ/m^2] | Minimum Demonstrated Condition to induce apoptosis: Fluence (L5178Y cells; 1.0 μM) [kJ/m^2] | apoptosis (in words) (L5178Y cells) | effect on tumor volume / growth (in words) (RIF-1 tumors) | also measured |
| --- | --- | --- | --- | --- | --- | --- | --- | --- | --- | --- | --- |
| HOSiPcOSi(CH3)2 (CH2)3 N[(CH2)3 N(CH3)2 ]2 [Compound XXVII] | 1.5 | 1.5 | 6.8 | – | – | – | – | – | – | – | uptake by V79 cells (in words) (V79 cells [1]): taken up particulary well |
| C[Si](C)(CCCCN)O[Si]1(O[Si](C)(C)CCCCN)n2c3c4ccccc4c2N=C2N=C(N=c4c5ccccc5c(n41)=NC1=NC(=N3)c3ccccc31)c1ccccc12 [Compound VII, SiPc[OSi(CH3)2 (CH2)4 NH2]2] | 0.2 | 0.2 | – | 1.5 | 3.0 | – | – | – | – | – | uptake by V79 cells (in words) (V79 cells [1]): poor uptake; LD 90 (V79 cells [2]; 0.5 μM, preplated data only): 4 kJ/m^2; photosensitizing activity, killing V79 cells (in words) (V79 cells [2]; listed as PcVII): most active at killing V79 cells; also recorded: one of the better photosensitizers |
| CN1CCN(CCC[Si](C)(C)O[Si]2(O)n3c4c5ccccc5c3N=C3N=C(N=c5c6ccccc6c(n52)=NC2=NC(=N4)c4ccccc42)c2ccccc23)CC1 (centres unmarked) [Compound XXVIII, HOSiPcOSi(CH3)2 (CH2)3 NC4 H8 NCH3] | – | – | 1.8 | – | – | 24 | – | – | – | – | effect on tumor volume / growth (in words) (RIF-1 tumors; listed as Pc XXVIII): significantly impair the growth of the tumors; effect on tumor volume / growth (in words) (RIF-1 tumors; listed as PcXXVIII): particularly effective in reducing tumor volume; Minimum Demonstrated Condition to induce apoptosis: C × F (L5178Y cells; 0.3 μM): 0.9 μm × kJ/m^2; Minimum Demonstrated Condition to induce apoptosis: Fluence (L5178Y cells; 0.3 μM): 3.0 kJ/m^2; photosensitizing activity, killing V79 cells (in words) (V79 cells [2]; listed as Pc XXVIII): photodynamic killing efficiency is superior to PcXII; photosensitizing activity, killing V79 cells (in words) (V79 cells [2]; listed as PcXXVIII): most active at killing V79 cells; also recorded: highest activity in killing V79 cells of all of the phthalocyanines |
| CCN(CCC[Si](C)(C)O[Si]1(O)n2c3c4ccccc4c2N=C2N=C(N=c4c5ccccc5c(n41)=NC1=NC(=N3)c3ccccc31)c1ccccc12)CCN(C)C (centres unmarked) [Compound X, HOSiPcOSi(CH3)2 (CH2)3 N(CH2 CH3)(CH2)2 N(CH3)2] | 0.7 | 0.7 | 7 | 3.0 | 6.0 | – | 3.0 | 3.0 | the same minimum value for the C×F product was obtained in both cases | – | photosensitizer activity in LY-R cells (in words) (L5178Y-R (LY-R) cells): active photosensitizers; activity relative to PcXII (L5178Y-R (LY-R) cells): 44%; LD 90 (L5178Y-R (LY-R) cells): 4.19 kJ/m^2; LD50 (L5178Y-R (LY-R) cells): 2.38 kJ/m^2 |
| SiPc[OSi(CH3)2 (CH2)4 NHSO2 CH3 ]2 [Compound VIII] | 0.2 | 0.2 | – | – | – | 4 | – | – | – | the doubling of tumor volume was delayed in the animals treated with each of the compounds except PcVIII | induction of apoptosis (L5178Y cells; 1 μM at a fluence of 30 kJ/m^2): did not induce apoptosis; Maximum Effect (% survival) (V79 cells [2]; 1 μM, at 30 kJ/m^2): 94% |
| CCN(CCC[Si](C)(C)O[Si]1(O[Si](C)(C)CCCN(CC)CCN(C)C)n2c3c4ccccc4c2N=C2N=C(N=c4c5ccccc5c(n41)=NC1=NC(=N3)c3ccccc31)c1ccccc12)CCN(C)C [Compound XVIII, SiPc[OSi(CH3)2 (CH2)3 N(CH2 CH3)(CH2)2 N(CH3)2]2] | – | – | – | 5.0 | 10.0 | 12 | 3.0 | 3.0 | minimum value of C×F differed only slightly for the two conditions | particularly effective in reducing tumor volume | activity relative to PcXII (L5178Y-R (LY-R) cells): 22%; LD 90 (L5178Y-R (LY-R) cells): 7.81 kJ/m^2; LD50 (L5178Y-R (LY-R) cells): 5.00 kJ/m^2; photosensitizer activity in LY-R cells (in words) (L5178Y-R (LY-R) cells; listed as PcXVIII): active photosensitizers; also recorded: least active; LD 90 (V79 cells [2]; 1 μM, 18 h): 7 kJ/m^2; photosensitizing activity, killing V79 cells (in words) (V79 cells [2]): good activity |
| C[Si](C)(CCCCNS(C)(=O)=O)O[Si]1(O)n2c3c4ccccc4c2N=C2N=C(N=c4c5ccccc5c(n41)=NC1=NC(=N3)c3ccccc31)c1ccccc12 (centres unmarked) [Compound IX, HOSiPCOSi(CH3)2 (CH2)4 NHSO2 CH3] | 0.3 | 0.3 | – | 4.0 | 8.0 | 11 | 12.0 | 12.0 | activity increases and then decreases as the concentration is raised | particularly effective in reducing tumor volume | Minimum Demonstrated Condition to induce apoptosis: C × F (L5178Y cells; 0.3 μM): 3.6 μm × kJ/m^2; Minimum Demonstrated Condition to induce apoptosis: Fluence (L5178Y cells; 0.3 μM): 12.0 kJ/m^2; Maximum Effect (% survival) (V79 cells [2]; 0.5 μM, at 9 kJ/m^2): 44% |
